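96-well plates; 48 h exposure; 5 concentrations. Endpoints by linear interpolation between flanking doses. Not reached: highest tested concentration assigned. GI50 = concentration required for 50% inhibition of growth. TGI: total growth inhibition.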
Experiments:
Experiment in all cases: DTP human tumour cell line panel, 48 h
[1] = system: TK-10 renal
[2] = system: NCI-H23 lung
[3] = system: 786-0 renal
[4] = system: SK-MEL-28 melanoma
[5] = system: SNB-19 CNS
[6] = system: CAKI-1 renal
[7] = system: HOP-92 NSCLC
[8] = system: OVCAR-5 ovarian
[9] = system: A498 renal
[10] = system: MDA-MB-231 breast

SMILES | TGI [1] [µM] | TGI [2] [µM] | TGI [3] [µM] | TGI [4] [µM] | TGI [5] [µM] | TGI [6] [µM] | TGI [7] [µM] | TGI [8] [µM] | TGI [9] [µM] | GI50 [1] [µM] | GI50 [5] [µM] | GI50 [2] | GI50 [7] | GI50 [8] | GI50 [3] [µM] | GI50 [10] [µM] | TGI [10] [µM] | GI50 [9] [µM] | GI50 [4] [µM] | GI50 [6]
CCC1C(C)c2c([nH]c3ccccc23)C2C(=O)N(c3ccccc3)C(=O)C21 (configuration not stated) | 89.2 | 41.8 | 34.5 | 33.4 | – | – | – | – | – | – | – | – | – | – | – | – | – | – | – | –
OCC(O)C(O)c1nn(-c2ccccc2)c2nc3cc(Cl)c(Cl)cc3nc12 (configuration not stated) | 48.4 | > 100 | 68.4 | > 100 | > 100 | 41.5 | 82.1 | 58.4 | – | – | – | – | – | – | – | – | – | – | – | –
Cc1nc(C)c(C(=O)Nc2cccc3c2C(=O)NC3=O)cc1C(=O)Nc1cccc2c1C(=O)NC2=O | > 100 | > 100 | > 100 | > 100 | > 100 | > 100 | > 100 | > 100 | > 100 | – | – | – | – | – | – | – | – | – | – | –
O=C(CC(=O)N1N=C(c2ccccc2)C(N=Nc2ccc(C(=O)O)cc2)C1=O)Nc1ccc(F)cc1 (configuration not stated) | > 100 | 90.2 | 63 | > 100 | > 100 | > 100 | > 100 | > 100 | 81.7 | – | – | – | – | – | – | – | – | – | – | –
O=C1c2ccccc2C(=O)c2c1ccc(C(Br)Br)c2[N+](=O)[O-] | 3.84 | 4.34 | 3.45 | 6.56 | 4.42 | – | 3.3 | 4.4 | 7.73 | 1.95 | 1.93 | 1.6 µM | 1.7 µM | 1.72 µM | 1.85 | 1.55 | 3.13 | 1.67 | 2.63 | –
CC1=NNC(=NCCN(C)C)C/C1=C/c1ccccc1Cl | > 100 | > 100 | > 100 | > 100 | > 100 | > 100 | – | > 100 | > 100 | – | – | – | – | – | – | – | – | – | – | –
COC(=O)C1=C(OC)c2cc3c(cc2C(c2cc(OC)c(OC)c(OC)c2)C1C(=O)OC)OCO3 (configuration not stated) | > 100 | > 100 | > 100 | > 100 | – | > 100 | > 100 | > 100 | > 100 | – | – | – | – | – | – | – | – | – | – | –
O=C1C2c3[nH]c4ccccc4c3[C@@H]3CCCCCCCCCCC3C2C(=O)N1c1ccccc1 (some centres not stated) | 44.3 | 37.5 | 35.7 | 58.8 | 30.3 | – | – | > 100 | – | – | – | – | – | – | – | – | – | – | – | –
Cn1cnc([N+](=O)[O-])c1Sc1ccccn1 | > 100 | > 100 | > 100 | > 100 | > 100 | > 100 | > 100 | > 100 | > 100 | – | – | – | – | – | – | – | – | – | – | –
Cc1c[nH]c2c1C13CC1CN(C(=O)c1cc4cc(NC(=O)c5cc6ccccc6o5)ccc4[nH]1)C3=CC2=O (configuration not stated) | < 0.001 | < 0.001 | < 0.001 | – | 0.00481 | < 0.001 | – | < 0.001 | – | – | – | > 1.17 ng/mL | > 1.17 ng/mL | > 1.17 ng/mL | – | – | – | – | – | > 1.17 ng/mL
COc1ccc2cccc(C(=O)c3ccc(C)c4c3CCC4)c2c1 | > 100 | 77 | 77.7 | > 100 | > 100 | 80.8 | – | > 100 | 83.7 | – | – | – | – | – | – | – | – | – | – | –
CC#C[C@@]1(O)CCCC[C@@H]1O | > 100 | > 100 | > 100 | > 100 | > 100 | – | > 100 | – | > 100 | – | – | – | – | – | – | – | – | – | – | –
Cn1c2c([N+](=O)[O-])[se]nc2c(=O)n1-c1ccc([N+](=O)[O-])cc1 | 16.2 | 4.49 | 6.5 | 4.39 | 18.4 | 4.03 | 3.37 | 4.44 | 23.7 | – | – | – | – | – | – | – | – | – | – | –
O=C(c1cc(O)ccc1O)c1ccccc1C(Cl)(Cl)Cl | > 100 | > 100 | > 100 | – | > 100 | > 100 | > 100 | > 100 | > 100 | – | – | – | – | – | – | – | – | – | – | –
CCOC(=O)C1N(S(=O)(=O)c2ccc(C)cc2)CCC12c1ccccc1N(C(C)=O)C2C(/C=C/C(=O)OC)=C/C(=O)OC (configuration not stated) | > 100 | > 100 | > 100 | > 100 | > 100 | > 100 | > 100 | > 100 | > 100 | – | – | – | – | – | – | – | – | – | – | –
NCCCCCS(=O)(=O)O | > 100 | > 100 | > 100 | > 100 | > 100 | – | – | > 100 | > 100 | – | – | – | – | – | – | – | – | – | – | –
CCOC(=O)c1sc(-c2ccc(OS(=O)(=O)c3cccs3)c(C=O)c2)nc1C | 4.33 | 4.54 | 4.54 | 4.07 | 2.95 | 3.94 | 4.24 | – | 3.18 | 1.27 | 1.37 | 1.76 µM | 1.36 µM | – | 1.86 | – | – | 1.58 | 2.01 | 1.31 µM
O=NC1c2cccc3cccc(c23)C1N=O (configuration not stated) | 37.1 | 32.3 | 30.5 | – | 43.4 | 10.8 | 24.5 | 9.11 | 35.8 | – | – | – | – | – | – | – | – | – | – | –
COC(=O)C(=O)C1(CCC(C)=O)c2ccccc2-c2ccccc21 | > 100 | > 100 | > 100 | > 100 | > 100 | > 100 | – | > 100 | > 100 | – | – | – | – | – | – | – | – | – | – | –
N/C(=N\NS(=O)(=O)c1ccccc1)Oc1ccc(Cl)cc1 | > 100 | > 100 | > 100 | > 100 | > 100 | > 100 | > 100 | > 100 | > 100 | – | – | – | – | – | – | – | – | – | – | –
CCOC(=O)C(C)(C)Oc1ccc2c(=O)cc(-c3ccccc3)oc2c1 | > 100 | 34.9 | 37.7 | 30.7 | 42.8 | – | – | > 100 | > 100 | – | – | – | – | – | – | – | – | – | – | –
C[Si](C)(C)/C=C/CCC(C=O)(CCCl)c1ccccc1 (configuration not stated) | > 100 | > 100 | 40.8 | > 100 | > 100 | – | 89.1 | 97.7 | > 100 | – | – | – | – | – | – | – | – | – | – | –
Cc1cc(NS(=O)(=O)c2ccc(Nc3c4ccccc4nc4c(C(=O)Nc5ccc(S(=O)(=O)N=C(N)N)cc5)cccc34)cc2)no1 | > 100 | > 100 | > 100 | > 100 | > 100 | > 100 | > 100 | > 100 | > 100 | – | – | – | – | – | – | – | – | – | – | –
